Results reported in patent publication US8507269B2, “Calcium channel proteins and uses thereof” (CalciMedica, Inc., priority 2007, dated 2013).
Where two headings read alike, the source gives them in different places. One block for each compound: values may come before it.

Key:
[1] = molecular target: T1, Orai1/STIM1 ICRAC channel (Homo sapiens, UniProt Q96D31); assay: Patch clamp (PatchXpress) of calcium currents in cells stably transfected with STIM1 and Orai1; format: cell-based
T1 construct: expressed in transfected cells
Excerpt: Isolated, stably transfected cells were monitored with patch clamp analysis (PatchExpress) to detect calcium currents with overexpressed, stably transfected STIM1 and Orai1 nucleic acids.

[2] = tested on: HEK[STIM1] cells (STIM1 overexpression)
Description: (§1) To test whether the […] entry pathway constitutively activated by STIM1 overexpression is pharmacologically similar to endogenous SOCE, HEK[STIM1] cells are pre-incubated with increasing doses of 2-APB and STIM1-induced Ca^2+ entry is measured.

[3] = tested on: endogenous SOCE in HEK-Zeo control cells; settings: read-out: IC50 of inhibition of calcium entry, thapsigargin-mediated store depletion, readdition of external calcium
Description: as §1

[4] = molecular target: STIM1 and Orai1 in HEK293 cells (Homo sapiens, UniProt Q96D31); settings: HEK293 cells coexpressing STIM1 and Orai1; cited from earlier work
[5] = molecular target: T2, CRAC current in olf186-F+Stim transfectants (Drosophila melanogaster, UniProt Q9U6B8); assay: Whole-cell patch-clamp of Ca2+ current in olf186-F+Stim transfected S2 cells; format: cell-based
T2 construct: A cDNA clone, pAc5.1/olf186-F, encoding full-length Drosophila olf186-F-RB, was generated for transfection into S2 cells; expressed in transfected cells; host or cells: Drosophila S2 cells (transient, Nucleofector)
T2 sequence (Q9U6B8 1-351): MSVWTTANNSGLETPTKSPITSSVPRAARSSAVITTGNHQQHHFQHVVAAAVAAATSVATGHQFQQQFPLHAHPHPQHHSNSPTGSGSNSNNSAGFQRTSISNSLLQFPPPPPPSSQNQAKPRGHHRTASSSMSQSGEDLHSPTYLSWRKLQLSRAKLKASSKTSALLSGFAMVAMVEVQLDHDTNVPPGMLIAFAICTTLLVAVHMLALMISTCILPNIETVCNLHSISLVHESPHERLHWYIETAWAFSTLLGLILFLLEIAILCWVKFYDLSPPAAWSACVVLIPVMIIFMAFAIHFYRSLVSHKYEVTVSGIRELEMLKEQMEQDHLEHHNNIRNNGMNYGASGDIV
Description: Whole-Cell Recording. Patch-clamp experiments were performed at room temperature in the standard whole-cell recording configuration, using a holding potential of −10 mV. […] To calculate current densities, peak current amplitudes were divided by membrane capacitance for each cell.

[6] = tested on: colon cancer cells; settings: cited from earlier work
[7] = tested on: Jurkat cells; settings: cited from earlier work
[8] = molecular target: T3, STIM1/Orai1 CRAC channel (Homo sapiens, UniProt Q96D31); assay: FLIPR assay of Orai1/STIM1-dependent Ca2+ entry in stably transfected STIM1/Orai1 cells; format: cell-based
T3 construct: expressed in transfected cells
Description: Cells are plated at 30K cells/50 uL media/well in PDL-coated 384-well plate (Greiner Cell Coat; VWR cat#82051-358) 24 hours before experiment. 20 μM Fluo-4-AM (Invitrogen cat#F-14201) are prepared, resuspended with 10 μl F-127, 20% pluronic solution in DMSO (Invitrogen cat#P3000MP), and added to 2.3 mL culture medium. Cells are loaded with dye by adding 5 μl of the 20 μM Fluo-4-AM solution to each well of the 384-well plate that already contained 50 μL of culture medium. The plates are kept in dark, RT, for approximately 1 hour. HBSS/1% HEPES/0.2 g/L MgCl2 was prepared and cells transferred to a plate washer to remove dye-loading solution from cells. The cells are washed with HBSS/1% HEPES/0.2 g/L MgCl2, being careful not to dislodge the cells. The final volume of buffer left on the cells should equal 40 μL. The cell plate is transferred to FLIPR monitoring instrument (Molecular Devices, Sunnyvale, Calif.), and 10 μL compound is added and incubated for 30 minutes. Data points (1/sec) are acquired prior to the addition of CaCl2 to establish basal readings. 5 μL 11 mM CaCl2 (1.0 mM CaCl2 final) is added, and the fluorescence read every second for 1 minute, then every 10 seconds for 14 minutes. […]
RBL-2H3 cells plated in 384-well plates are loaded for 45 min with FLUO-4-AM (2 μM final concentration) in a Hanks-buffered salt solution. […] Fifteen minutes after addition of Tg, store-operated calcium entry is initiated by adding external Ca^2+ to a final concentration of 1.8 mM and the cells monitored for a further 10-15 minutes. Calcium levels are monitored throughout the assay using a FLIPR^384 (Molecular Devices fluorimetric imaging plate reader for high throughput screening).
The kinetic data from the FLIPR^384 are analyzed and stored in a relational database (ActivityBase; IDBS). Ten quantitative parameters are calculated that define various aspects of the store-operated calcium entry response. […]

[9] = tested on: Drosophila S2 cells; assay: Single-cell ratiometric fura-2 [Ca2+]i imaging of S2 cells; format: cell-based; settings: control cells, 1 μM ionomycin in zero-Ca2+ solution, average
Description: RNAi in Drosophila S2 Cells. RNAi experiments were adapted from the protocols described by Worby et al. Drosophila S2 cells (0.5×10^6) were seeded in T-25 flasks in 2 ml of complete S2 medium. The next day, medium was removed and replaced with 2 ml of serum-free S2 medium. Twenty micrograms of dsRNA was added, and cells were incubated at room temperature for 45 min with gentle rocking. Four milliliters of S2 medium was added, and cells were incubated for 5 days at 24° C. Cells then were harvested and either plated for single-cell Ca^2+ imaging and patch-clamp experiments or processed for RT-PCR analysis.
Single-Cell [Ca^2+]i imaging. Ratiometric [Ca^2+]i Imaging was performed as described in ref. 3, using solution recipes described in Table 3. Transfected cells were recognized by coexpressed enhanced GFP (EGFP), using filters to avoid contamination of Fura-2 fluorescence by bleedthrough of GFP fluorescence. Data were analyzed with METAFLUOR software (Universal Imaging, Downington, Pa.) and ORIGINPRO 7.5 software (OriginLab, Northampton, Mass.) and are expressed as means ±SEM.
Effects of olf186-F Knockdown and Overexpression on Ca^2+ Influx and CRAC Currents in Single Cells. […]

T3 sequence (Q96D31 whole entry): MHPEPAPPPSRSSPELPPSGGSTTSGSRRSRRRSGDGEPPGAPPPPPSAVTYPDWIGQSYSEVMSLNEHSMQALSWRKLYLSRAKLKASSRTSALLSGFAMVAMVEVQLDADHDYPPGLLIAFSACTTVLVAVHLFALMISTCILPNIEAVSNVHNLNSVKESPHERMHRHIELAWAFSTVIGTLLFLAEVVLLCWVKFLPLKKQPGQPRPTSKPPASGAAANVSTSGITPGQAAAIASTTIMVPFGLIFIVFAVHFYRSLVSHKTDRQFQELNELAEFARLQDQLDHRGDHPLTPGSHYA
STIM1 and Orai1 in HEK293 cells, sequence (Q96D31 whole entry): as above
T1 sequence (Q96D31 whole entry): as above

SMILES: NCCOB(c1ccccc1)c1ccccc1 [2-APB, 2-aminoethoxydiphenyl borate]
- effect on CRAC channel currents (FIG. 8) [1]: potentiation
- calcium entry at lower concentrations ([2]; absence of store depletion, lower concentrations): potentiated
- IC50 ([2]; read-out: IC50 of inhibition of calcium entry, thapsigargin-mediated store depletion, readdition of external calcium): 10.5 µM
- IC50 ([2]; read-out: IC50 of inhibition of constitutive calcium entry, absence of store depletion): 10.8 µM
- IC50 [3]: 11.8 µM
- store-operated Ca2+ entry [4]: completely blocked
- effect on enhanced Ca2+ currents ([5]; 5 μM): potentiation of current before blocking
- effect on enhanced Ca2+ currents ([5]; 20 μM): blocked

SMILES: Cc1nnsc1C(=O)Nc1ccc(-n2nc(C(F)(F)F)cc2C(F)(F)F)cc1 [BTP-2]
- SOCE [6]: inhibits
- proliferation [6]: inhibits
- SOCE [7]: inhibits
- proliferation [7]: inhibits

SMILES: C[C@H](CCC(=O)O)C[C@H](C)C[C@H](C)C(=O)/C=C(\O)[C@H](C)C[C@H](C)C/C=C/[C@@H](C)[C@@H](O)[C@@H](C)[C@@H](O)C[C@@H]1CC[C@@](C)([C@H]2CC[C@@](C)([C@@H](C)O)O2)O1 [ionomycin]
- peak of Ca2+ release transient [9]: 200 nM

Continued, values first:

- CRAC-channel mediated Ca2+ entry [8]: inhibit
- IC50 ([8]; read-out: IC50 (inhibition of calcium inflow)): 1.9 µM
SMILES: O=C(Nc1scc(-c2ccc(Br)cc2)c1C(=O)O)c1cccc(F)c1 [Cmpd B]

- effect on enhanced Ca2+ currents ([5]; 50 nM): blocked
SMILES: [Gd+3] [Gd^3+]

- CRAC-channel mediated Ca2+ entry [8]: inhibit
SMILES: O=C(Nc1scc(-c2ccc(Br)cc2)c1C(=O)O)c1ccc(F)cc1 [compound A]
